Measured values reported in US20250120986A1, “STEROL THERAPY” (UCL BUSINESS LTD, priority 2021, published 2025).

Experiments:
[1] = tested on: sham-operated rats and septic rats; assay: Catecholamine responsiveness study (dobutamine / noradrenaline challenge) in rat faecal peritonitis model; type: in vivo; settings: 10 minutes after commencement of infusion
Description: II. Sepsis was induced in awake, instrumented male Wistar rats (316±23.5 g) as described above but using 7 microL of faecal slurry/g body weight. Rats were allocated into sham-operated (control), sepsis and sepsis+cholesterol groups.
At 6 h post-induction of sepsis, the sepsis+cholesterol group received an i.v. infusion of a cholesterol-loaded formulation, either liposomal- or bovine HDL (10 mg cholesterol/300 g bw), which was continued over 15 hours.
At 21 h, catecholamine responsiveness was tested by consecutively administering, under isoflurane anaesthesia, the beta-adrenergic agonist, dobutamine (10 μg/kg/min for 10 min) and then the predominant alpha-adrenergic agonist, norepinephrine (0.5 μg/kg/min for 10 min) with a 30 min washout period in between.
Blood pressure (measured continuously from an indwelling carotid line), heart rate and stroke volume (measured by echocardiography) were measured before and at 10 minutes after each drug was infused.

H9C2 cell line = assay: Western blot of ERK2 phosphorylation after adrenaline treatment (adrenergic signalling); type: cell-based, rat; settings: for ERK2 phosphorylation after adrenaline treatment: H9C2 depleted with MßCD, then incubated with sterol
Description: (§1) Cells were incubated in 5 mM solution MßCD in DMEM for 30 minutes. Before treatment cells were washed twice with prewarmed PBS to remove remaining FBS and prevent contamination of exogenous cholesterol.
After MßCD treatment cells were washed twice with prewarmed PBS to remove remaining MßCD solution and then incubated for 4 hours with either (i) complex Cholesterol—MßCD or (ii) Sitosterol—MßCD. These were prepared according to the protocol reported by Klein et al. (Biochemistry 1995; 34:13784). Sterol complexes were diluted ×100 in DMEM to produce final concentrations of 68 microM cholesterol, 68 microM sitosterol and 700 microM MßCD.
Control, MßCD or MßCD/sterol-treated cells were incubated for 10 minutes with adrenaline or noradrenaline solution in DMEM (final concentration 10^−7M).
Cells were washed and lysed on plates with RIPA buffer supplemented by protease and phosphatase inhibitors on ice for 30 minutes. Lysates were treated as described above for sterol determination. Protein concentration was determined by BCA assay. Western blot samples were prepared by mixing the lysates with 5× loading buffer (Tris HCl pH 6.8 312.5 mM, SDS 10%, bME 12.5%, glycerol 47.5%, bromophenol blue 0.01%). 2 mcg of protein/sample was separated by electrophoresis on 10% SDS-PAGE and transferred to a PVDF membrane. Membrane was blocked with 5% BSA in TBST for 1 hour at room temperature with gentle agitation and incubated with primary anti-pERK or anti-PFK antibodies overnight at 4° C. Both primary antibodies were diluted 2000 times in 5% BSA in TBST. […]
Chemiluminescent detection was performed using the Clarity TM Western ECL Substrate (Bio-Rad). Band intensity was analysed by Image Studio Lite ver5.2. Results are calculated as a ratio of intensities of pERK2 band to PFK band for each sample and normalized as a percentage from the average of samples treated with adrenaline only.

H9C2 cardiomyocyte cells = assay: Sterol concentration in H9C2 cells after MßCD depletion (Amplex Red / BCA); type: cell-based, rat; settings: sterol-MßCD complex, 68 microM sterol, 4 hours
Description: Rat embryonic cardiomyocyte H9C2 cells were cultured in high-glucose DMEM (Gibco 41965-039) supplemented with 10% fetal bovine serum (FBS, Gibco 10270-106) and 100 U/ml of penicillin/streptomycin at 37° C. in a humidified atmosphere of 5% CO2. Cells were split every 2-3 days.
Two days prior to experimentation, cells were seeded in 6 well plates (Corning N-3516) 3×10^5 cells/well. Before any treatment. cells were washed twice with prewarmed PBS.
as §1
After MßCD treatment cells were washed twice with prewarmed PBS to remove remaining MßCD solution and then incubated for 4 hours with either (i) complex Cholesterol—MßCD or (ii) Sitosterol—MßCD. These were prepared according to the protocol reported by Klein et al. (Biochemistry 1995; 34:13784). […]
After incubation MßCD-treated, MßCD/Sterol treated, and untreated (control) cells were washed twice with ice-cold PBS and lysed with phosphate buffer (0.1 M potassium phosphate pH 7.4, 50 mM NaCl, 5 mM cholic acid, 0.1% Triton X-100, protease inhibitors) on ice. […] Protein and sterol concentrations were measured by BCA and Cholesterol Amplex Red assays, respectively. […]

H9C2 cardiomyocytes = assay: ERK1 and ERK2 phosphorylation after dobutamine treatment (adrenergic signalling); type: cell-based, rat; settings: H9C2 treated with MßCD alone
Description: Adrenergic signalling was evaluated in the H9C2 cardiomyocytes by the increase of ERK1 and ERK2 phosphorylation after dobutamine treatment.

[2] = septic rats, 21 h post-faecal peritonitis

Molecule: NC[C@H](O)c1ccc(O)c(O)c1 [noradrenaline]
- blood pressure response to the agonist [1, 2]: non-responsive
- blood pressure response to the agonist ([1]; sham animals): significant rises

Molecule: CC[C@H](CC[C@@H](C)[C@H]1CC[C@H]2[C@@H]3CC=C4C[C@@H](O)CC[C@]4(C)[C@H]3CC[C@]12C)C(C)C [sitosterol, Sitosterol]
- ERK2 phosphorylation after adrenaline treatment (H9C2 cell line): 2 × normal
- cellular sterol content after MßCD depletion (H9C2 cardiomyocyte cells): Sterol content was restored

Molecule: CC(CCc1ccc(O)cc1)NCCc1ccc(O)c(O)c1 (stereo not shown) [dobutamine]
- stroke volume response to the agonist [1, 2]: non-responsive
- stroke volume response to the agonist ([1]; sham animals): significant rises

Molecule: CC(C)CCC[C@@H](C)[C@H]1CC[C@H]2[C@@H]3CC=C4C[C@@H](O)CC[C@]4(C)[C@H]3CC[C@]12C [cholesterol, Cholesterol]
- ERK2 phosphorylation after adrenaline treatment (H9C2 cell line): 2 × normal
- cellular sterol content after MßCD depletion (H9C2 cardiomyocyte cells): Sterol content was restored

Molecule: Methyl-β-cyclodextrin [MßCD]
- ERK2 phosphorylation after adrenaline treatment (in words) (H9C2 cell line; H9C2, 5 mM MßCD for 30 minutes): decreased ERK2 phosphorylation
- phosphorylation of ERK1 and ERK2 after dobutamine treatment (H9C2 cardiomyocytes): decreased phosphorylation of both ERK1 and ERK2
